Experimental data: article PMC11474028, “Lipopeptide antibiotics disrupt interactions of undecaprenyl phosphate with UptA” (Proceedings of the National Academy of Sciences of the …, 2024)

Target: UptA (Bacillus subtilis, UniProt O31823)
Experiment: Native MS of phospholipid binding to UptA
Conditions: 4 µM UptA with 10 µM lipid (stated for a15:0-i15:0 lipids); mean of three independent replicates
Source text: Proteins belonging to the DedA family are a widespread family of transporters and are proposed to flip diverse lipids, including carrier lipids and membrane phospholipids. We therefore probed the interaction of UptA with membrane phospholipids to understand whether the latter could modulate its function. For this purpose, we selected anionic phosphatidylglycerols (PG) and zwitterionic phosphatidylethanolamines (PE), representing the major classes of phospholipid headgroups found in B. subtilis ([41], [42]). We recorded mass spectra of solutions containing 4 µM UptA incubated with 10 µM a15:0-i15:0 PE and 10 µM a15:0-i15:0 PG (a15:0, anteiso-pentadecanoic acid; i15:0, iso-pentadecanoic acid). The fatty acid composition of these lipids closely mimics those of native B. subtilis lipids (see below). The resulting spectra display peaks corresponding to UptA in apo and lipid-bound forms in both cases (Fig. 4 A and B). […] We therefore hypothesize that UptA interacts more favorably with PG than with PE.
To verify the lipid binding preference of UptA with more native-like lipids, we prepared lipid extracts from B. subtilis membranes (Materials and Methods). We then incubate an aliquot of the resulting crude lipids (SI Appendix, Fig. S8) with UptA. The spectra yielded peaks assigned to UptA in complex with cardiolipins (~1,326 Da) and a range of phospholipids, predominantly 694 Da, 721 Da, 748 Da, and 776 Da species (Fig. 4 D and E). To identify these lipids, we performed tandem MS/MS, isolating the lipid species and subjecting it to collisional activation. […] The fatty acid fragments are mixed populations, predominantly 15:0-15:0, 15:0-17:0, 16:0-16:0, and 16:0-18:1 (SI Appendix, Fig. S9) which are the typical fatty acids from B. subtilis membrane phospholipids ([42]). We therefore conclude that UptA interacts more favorably with the anionic cardiolipins and phosphatidylglycerols than with the zwitterionic phosphatidylethanolamines in the membrane lipid extracts.
Detailed experimental procedures are provided in SI Appendix. Briefly, UptA (wild type and mutants) was expressed in E. coli C43(DE3) cells (Lucigen) with GFP fusion on the C-terminus and solubilized from the membrane fraction by n-dodecyl-β-D-maltopyranoside (DDM). After purification by affinity chromatography, the GFP was cleaved by TEV protease and removed, and UptA was further purified by size-exclusion chromatography in a buffer containing 20 mM Tris-HCl (pH 8.0), 200 mM NaCl, 0.02% DDM. Before measurements, proteins were buffer-exchanged into 0.05% LDAO, 200 mM ammonium acetate at the desired pH using a centrifugal buffer exchange device (Micro Bio-Spin 6, Bio-Rad). Stock solutions of lipids were prepared from chloroform/methanol solution by evaporating aliquots of known volume in a SpeedVac. After drying, the lipid films were weighed and resuspended to a final concentration of 0.5 mM in 200 mM ammonium acetate and 0.05% LDAO by vertexing. Stock solutions of 0.5 mM amphomycin, aspartocin D, daptomycin, polymyxin B, polymyxin E, and bacitracin were made in the same buffer. All experiments were repeated three times from newly prepared stock solutions. Native mass spectrometry was performed on a Q-Exactive hybrid quadrupole-Orbitrap mass spectrometer (Thermo Fisher Scientific, Bremen, Germany), and lipid identification was performed on an Orbitrap Eclipse Tribrid mass spectrometer (Thermo). […]
Lipid extracts from B. Subtilis
B. subtilis strain 168 (ATCC 23857) was cultivated in […] LB media at 37 °C until OD600 nm 1.2 under aurobic conditions. Cells were harvested by centrifugation at 4,000 g for 20 minutes and resuspended in 20 mM Tris-HCl (pH 8.0), 150 mM NaCl. Cells were lysed by 5-6 passes through a microfluidizer at 20,000 psi. The lysates were clarified by centrifugation at 4,000 g for 10 minutes, and the totoal membrane was pelleted at 120,000 g for 1 h. The membrane pellet was ressupended […]

Sequence of UptA (O31823 whole entry): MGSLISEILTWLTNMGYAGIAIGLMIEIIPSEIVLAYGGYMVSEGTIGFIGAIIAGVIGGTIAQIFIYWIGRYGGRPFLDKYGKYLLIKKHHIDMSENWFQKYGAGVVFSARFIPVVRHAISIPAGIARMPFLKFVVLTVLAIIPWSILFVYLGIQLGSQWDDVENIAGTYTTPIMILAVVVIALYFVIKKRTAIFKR

## CC(C)=CCC/C(C)=C/CC/C(C)=C/CC/C(C)=C\CC/C(C)=C\CC/C(C)=C\CC/C(C)=C\CC/C(C)=C\CC/C(C)=C\CC/C(C)=C\CC/C(C)=C\COP(=O)(O)O [C55-P, undecaprenyl phosphate]
  mean relative intensity of UptA in complex with phospholipid, comparison (in words): more intensely than any of these diacylglycerol phospholipids
